In patent US10111833B2, “Sildenafil sublingual spray formulations” (Insys Development Company, Inc., priority 2015, dated 2018):

Columns and labels:
[1] = Impurity formation / standard stability testing (clarity, color, pH, assay, impurities); type: physicochemical; settings: Drug Substance
Excerpt: In order to further determine the stability of Formulations 1, 3A, 3B, 5A, 5B, 5C, 5D and 5E, the formulations were subjected to standard stability testing to determine impurity levels. The results are below in Tables 7-11.

[2] = Freeze/thaw stability testing; type: physicochemical; settings: Drug Substance
Excerpt: The results are below in Tables 13-18.

Assay (% of initial Conc) [1]: 100.70%
Total Impurities [1]: 0.00%
Physical appearance ([1]; first line of cell (clarity)): clear,
Physical appearance ([1]; second line of cell (color)): colorless
Color [2]: colorless
Physical appearance [2]: clear
Structure (SMILES): CCCc1nn(C)c2c(=O)[nH]c(-c3cc(S(=O)(=O)N4CCN(C)CC4)ccc3OCC)nc12 [Drug Substance, Sildenafil base]
Impurity A [1]: BQL (BQL = Below Quantification Limit (Limit of Quantification = 0.05%))
Impurity B [1]: ND (ND = Not Detected (Limit of Detection = 0.01%))
Impurity C [1]: BQL (BQL = Below Quantification Limit (Limit of Quantification = 0.05%))
Impurity D [1]: BQL (BQL = Below Quantification Limit (Limit of Quantification = 0.05%))
Unknown Impurity RRT 0.24 [1]: ND (ND = Not Detected (Limit of Detection = 0.01%))
Unknown Impurity RRT 0.61 [1]: ND (ND = Not Detected (Limit of Detection = 0.01%))
